Results as given in patent publication US7998973B2 (AVEO Pharmaceuticals, Inc., priority 2009, dated 2011).
Where two headings read alike, the source gives them in different places.

Tests used:
[1] = cited from earlier work
[2] = pharmacokinetics in the human body; assay type: in vivo; conditions: for accumulation: human
Excerpt: Serum levels reach steady state after about 2-3 weeks.
Therefore, […] is expected to exert physiological effects after temsirolimus has been cleared.

[3] = cited from earlier work; remark: listed apart in the source
[4] = target: VEGF receptor 3 (Homo sapiens, UniProt P35916); conditions: cited from earlier work
VEGF receptor 3, sequence (P35916 25-1363): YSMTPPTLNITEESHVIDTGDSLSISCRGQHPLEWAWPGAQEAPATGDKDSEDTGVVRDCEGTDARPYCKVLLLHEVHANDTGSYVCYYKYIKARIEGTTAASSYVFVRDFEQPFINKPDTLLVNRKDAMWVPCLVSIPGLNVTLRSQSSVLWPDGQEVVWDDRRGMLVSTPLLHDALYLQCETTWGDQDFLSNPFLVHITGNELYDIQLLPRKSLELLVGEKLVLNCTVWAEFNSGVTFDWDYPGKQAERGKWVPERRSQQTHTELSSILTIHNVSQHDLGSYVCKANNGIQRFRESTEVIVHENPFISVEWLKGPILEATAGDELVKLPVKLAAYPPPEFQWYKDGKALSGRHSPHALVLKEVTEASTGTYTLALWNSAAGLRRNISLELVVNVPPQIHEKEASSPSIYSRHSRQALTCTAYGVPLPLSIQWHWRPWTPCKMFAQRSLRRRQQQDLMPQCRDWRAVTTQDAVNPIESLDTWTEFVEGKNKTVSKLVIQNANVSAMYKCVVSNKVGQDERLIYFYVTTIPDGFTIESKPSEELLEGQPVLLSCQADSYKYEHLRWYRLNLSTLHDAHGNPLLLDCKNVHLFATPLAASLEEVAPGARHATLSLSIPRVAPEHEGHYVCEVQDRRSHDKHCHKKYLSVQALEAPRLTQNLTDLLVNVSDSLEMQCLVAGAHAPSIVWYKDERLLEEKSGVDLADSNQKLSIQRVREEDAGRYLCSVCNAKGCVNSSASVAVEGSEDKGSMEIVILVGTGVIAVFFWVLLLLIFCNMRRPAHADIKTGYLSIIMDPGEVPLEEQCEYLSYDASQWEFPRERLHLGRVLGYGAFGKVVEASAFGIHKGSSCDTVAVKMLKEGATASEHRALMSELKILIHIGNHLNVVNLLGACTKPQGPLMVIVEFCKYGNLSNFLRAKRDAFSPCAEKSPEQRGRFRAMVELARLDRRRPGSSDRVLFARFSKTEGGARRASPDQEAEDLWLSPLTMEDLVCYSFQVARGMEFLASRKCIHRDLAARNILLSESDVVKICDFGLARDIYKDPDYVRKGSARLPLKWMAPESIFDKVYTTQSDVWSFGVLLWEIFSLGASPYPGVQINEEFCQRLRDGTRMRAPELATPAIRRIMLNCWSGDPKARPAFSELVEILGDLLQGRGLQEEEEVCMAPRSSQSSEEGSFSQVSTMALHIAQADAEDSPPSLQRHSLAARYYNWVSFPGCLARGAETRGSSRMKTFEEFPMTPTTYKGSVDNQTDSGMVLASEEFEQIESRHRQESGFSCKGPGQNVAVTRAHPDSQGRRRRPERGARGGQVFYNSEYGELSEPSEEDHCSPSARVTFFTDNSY

[5] = preclinical models; cited from earlier work

In the case of CO[C@H]1C[C@@H]2CC[C@@H](C)[C@@](O)(O2)C(=O)C(=O)N2CCCC[C@H]2C(=O)O[C@H]([C@H](C)C[C@@H]2CC[C@@H](O)[C@H](OC)C2)CC(=O)[C@H](C)/C=C(\C)[C@@H](O)[C@@H](OC)C(=O)[C@H](C)C[C@H](C)/C=C/C=C/C=C/1C [sirolimus], the “half-life relative to parent compound temsirolimus” value ([1]; primary metabolite of temsirolimus) is listed as “about three times that of the parent compound”.
For CO[C@H]1C[C@@H]2CC[C@@H](C)[C@@](O)(O2)C(=O)C(=O)N2CCCC[C@H]2C(=O)O[C@H]([C@H](C)C[C@@H]2CC[C@@H](OC(=O)C(C)(CO)CO)[C@H](OC)C2)CC(=O)[C@H](C)/C=C(\C)[C@@H](O)[C@@H](OC)C(=O)[C@H](C)C[C@H](C)/C=C/C=C/C=C/1C [temsirolimus, 42-(3-hydroxy-2-(hydroxymethyl)-2-methylpropanoate) rapamycin], the accumulation [2] is given as “does not appear to accumulate more than would be expected based on its half life” and the half-life ([1]; human body) is given as “approximately 17 hours”.
For COc1cc2nccc(Oc3ccc(NC(=O)Nc4cc(C)on4)c(Cl)c3)c2cc1OC [tivozanib, N-{2-chloro-4-[(6,7-dimethoxy-4-quinolyl)oxy]-phenyl}-N′-(5-methyl-3-isoxazolyl)urea], the interim results ([3]; 272-patient Phase 2 clinical trial) is listed as “positive interim results”, the “most common side effects” value ([3]; Phase 1 and Phase 2 clinical trials) is listed as “hypertension and dysphonia” and the “dose at which safety had been established” value ([3]; previous trials, 4 weeks on, 2 weeks off or 3 weeks on, 1 week off) is listed as 1.5 mg/day. For the same compound, the inhibitory activity [4] was “picomolar inhibitory activity”, the “time for serum levels to reach steady state” value ([2]; chronic dosing) was 2-3 weeks and the accumulation [2] was “accumulates in the serum after chronic dosing to a degree that would be expected based on its half-life”. The half-life ([2]; serum, human body) was 3.8 to 4.7 days and the antitumor activity [5] was “exhibits antitumor activity”.
